Reference: the supplement of paper PMC10307832

Columns and labels:
Assay in all cases: relative viability (nuclei count vs DMSO), 5 days (fraction); higher = more cells survive
Bexarotene = compound: C=C(c1ccc(C(=O)O)cc1)c1cc2c(cc1C)C(C)(C)CCC2(C)C [Bexarotene]
In short: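 In 1536-well plates, lung cancer cell lines rested overnight at 37 °C before five library-drug doses (not always all listed), √10 apart, were pinned onto vehicle-anchored plates. Nuclei were counted with MetaXpress from 4× Hoechst images taken after 5 days without medium change. Viability compares treated-well with vehicle-well nuclei as a median over plates, and plates needed control CV below 25% plus at least one doubling to pass.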

Bexarotene + Phenformin = compound: C=C(c1ccc(C(=O)O)cc1)c1cc2c(cc1C)C(C)(C)CCC2(C)C [Bexarotene] + N=C(N)NC(=N)NCCc1ccccc1 [Phenformin] (partner 250 µM)
In short: (§1)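 Nuclei were stained with Hoechst during a one-step fixation (final 0.05% Triton X-100, 1% formaldehyde, 1 ug/ml Hoechst) carried out 5 days after dosing, then counted on 4× images. The cells, lung cancer lines in 1536-well plates, had been dosed by pin tool the day after seeding with one drug alone or a fixed anchor-drug dose plus five library-drug doses (not always all listed) in √10 steps. Relative viability is the nuclei count in treated wells divided by that in vehicle wells, and each value is the median of duplicate plates.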

Bexarotene + Tozasertib = compound: C=C(c1ccc(C(=O)O)cc1)c1cc2c(cc1C)C(C)(C)CCC2(C)C [Bexarotene] + Cc1cc(Nc2cc(N3CCN(C)CC3)nc(Sc3ccc(NC(=O)C4CC4)cc3)n2)n[nH]1 [Tozasertib] (partner 0.1 µM)
In short: as §1

Bexarotene + Navitoclax = compound: C=C(c1ccc(C(=O)O)cc1)c1cc2c(cc1C)C(C)(C)CCC2(C)C [Bexarotene] + CC1(C)CCC(c2ccc(Cl)cc2)=C(CN2CCN(c3ccc(C(=O)NS(=O)(=O)c4ccc(N[C@H](CCN5CCOCC5)CSc5ccccc5)c(S(=O)(=O)C(F)(F)F)c4)cc3)CC2)C1 [Navitoclax] (partner 0.5 µM)
In short: as §1

Cell Line	relative viability (Bexarotene; 0.08 µM)	relative viability (Bexarotene; 0.253 µM)	relative viability (Bexarotene; 0.8 µM)	relative viability (Bexarotene; 2.53 µM)	relative viability (Bexarotene; 8 µM)	relative viability (Bexarotene + Phenformin; first compound 0.08 µM)	relative viability (Bexarotene + Phenformin; first compound 0.253 µM)	relative viability (Bexarotene + Phenformin; first compound 0.8 µM)	relative viability (Bexarotene + Phenformin; first compound 2.53 µM)	relative viability (Bexarotene + Phenformin; first compound 8 µM)	relative viability (Bexarotene + Tozasertib; first compound 0.08 µM)	relative viability (Bexarotene + Tozasertib; first compound 0.253 µM)	relative viability (Bexarotene + Tozasertib; first compound 0.8 µM)	relative viability (Bexarotene + Tozasertib; first compound 2.53 µM)	relative viability (Bexarotene + Tozasertib; first compound 8 µM)	relative viability (Bexarotene + Navitoclax; first compound 0.08 µM)	relative viability (Bexarotene + Navitoclax; first compound 0.253 µM)	relative viability (Bexarotene + Navitoclax; first compound 0.8 µM)	relative viability (Bexarotene + Navitoclax; first compound 2.53 µM)	relative viability (Bexarotene + Navitoclax; first compound 8 µM)
201T	1.02	0.989	0.971	0.942	0.93	0.582	0.516	0.5	0.519	0.458	0.926	0.86	0.891	0.92	0.808	1.22	1.21	1.23	1.2	1.12
A549	1.07	0.99	0.964	0.933	0.878	0.133	0.187	0.157	0.18	0.183	–	–	–	–	–	1.18	1.29	1.15	0.986	0.938
A-427	1.06	0.963	0.954	0.895	0.893	0.322	0.305	0.348	0.3	0.307	0.203	0.202	0.193	0.202	0.183	0.959	0.877	0.882	0.933	0.816
ABC-1	1	0.904	0.892	0.851	0.993	0.239	0.225	0.215	0.303	0.285	0.19	0.175	0.21	0.197	0.196	–	–	–	–	–
BEN	1.01	0.822	0.868	0.752	0.87	0.289	0.27	0.268	0.214	0.279	0.462	0.475	0.499	0.444	0.493	0.083	0.0587	0.063	0.0608	0.0559
CAL-12T	0.989	0.992	0.981	0.844	0.917	0.578	0.511	0.572	0.513	0.519	0.264	0.309	0.227	0.276	0.244	1.14	1.26	1.39	1.13	1.02
COR-L23	1.16	0.979	0.936	0.874	0.951	0.411	0.512	0.395	0.383	0.364	0.242	0.238	0.238	0.204	0.219	0.98	1.12	0.847	0.916	0.879
COR-L 105	1.13	1.02	0.963	0.987	0.892	0.614	0.472	0.519	0.517	0.569	0.395	0.328	0.324	0.442	0.388	0.715	0.856	0.882	0.983	0.617
Calu-6	1.04	1.03	0.955	1.02	1.06	–	–	–	–	–	–	–	–	–	–	0.804	0.801	0.694	0.784	0.827
ChaGo-K-1	1.09	1.01	1	1.03	0.989	0.563	0.496	0.539	0.533	0.536	0.259	0.234	0.264	0.223	0.223	0.98	0.987	1.07	–	0.991
EBC-1	0.901	1.03	0.971	1.02	1.08	–	–	–	–	–	–	–	–	–	–	0.43	0.401	0.333	0.344	0.369
EKVX	0.974	0.98	0.97	1.02	0.891	0.257	0.263	0.224	0.233	0.233	0.361	0.42	0.389	0.46	0.325	0.906	0.94	0.908	0.878	0.966
EMC-BAC-2	1.15	1.02	1	–	1.02	0.549	0.575	0.521	0.49	0.546	0.311	0.315	0.274	0.277	0.283	1.26	1.27	1.09	1.31	1.15
EPLC-272H	1	0.93	0.802	0.881	0.939	0.304	0.27	0.313	0.3	0.373	0.278	0.262	0.307	0.286	0.341	1.16	1.09	1.01	0.974	0.96
H3255	1.07	0.949	1.05	0.988	1.01	0.391	0.336	0.382	0.419	0.416	0.696	0.612	0.578	0.731	0.618	0.528	0.473	0.534	0.5	0.543
HARA	1.04	1.03	0.838	0.925	0.875	0.523	0.448	0.375	0.398	0.39	0.0906	0.0857	0.156	0.0749	0.0939	1.23	1.27	1.17	1.07	0.854
HCC-15	1.1	1.11	1.02	0.978	1.05	0.524	0.533	0.472	0.496	0.475	0.357	0.531	0.415	0.44	0.34	0.726	0.793	0.703	0.617	0.602
HCC-44	0.981	1.02	0.889	0.976	0.932	0.148	0.409	0.27	0.145	0.289	1.34	1.07	0.925	0.842	0.82	0.987	1.06	0.969	1.05	0.871
HCC-78	1.09	0.889	0.844	0.849	1.08	1.01	0.732	0.599	0.596	0.73	0.401	0.483	0.414	0.435	0.413	0.673	0.714	0.667	0.644	0.863

Cell Line	relative viability (Bexarotene; 0.08 µM)	relative viability (Bexarotene; 0.253 µM)	relative viability (Bexarotene; 0.8 µM)	relative viability (Bexarotene; 2.53 µM)	relative viability (Bexarotene; 8 µM)	relative viability (Bexarotene + Phenformin; first compound 0.08 µM)	relative viability (Bexarotene + Phenformin; first compound 0.253 µM)	relative viability (Bexarotene + Phenformin; first compound 0.8 µM)	relative viability (Bexarotene + Phenformin; first compound 2.53 µM)	relative viability (Bexarotene + Phenformin; first compound 8 µM)	relative viability (Bexarotene + Tozasertib; first compound 0.08 µM)	relative viability (Bexarotene + Tozasertib; first compound 0.253 µM)	relative viability (Bexarotene + Tozasertib; first compound 0.8 µM)	relative viability (Bexarotene + Tozasertib; first compound 2.53 µM)	relative viability (Bexarotene + Tozasertib; first compound 8 µM)	relative viability (Bexarotene + Navitoclax; first compound 0.08 µM)	relative viability (Bexarotene + Navitoclax; first compound 0.253 µM)	relative viability (Bexarotene + Navitoclax; first compound 0.8 µM)	relative viability (Bexarotene + Navitoclax; first compound 2.53 µM)	relative viability (Bexarotene + Navitoclax; first compound 8 µM)
HCC-366	1.06	0.998	1.02	0.999	1.02	0.624	0.608	0.579	0.533	0.597	0.169	0.118	0.119	0.0858	0.113	1.04	1.15	1.14	0.975	1.03
HCC-827	1.09	0.993	0.961	1.05	0.937	0.51	0.444	0.493	0.463	0.444	0.444	0.395	0.433	0.402	0.366	1.06	1.05	0.97	0.975	0.868
HOP-62	1.13	1.11	1.15	1.04	1	0.738	0.701	0.698	0.651	0.571	0.352	0.366	0.408	0.391	0.363	1.02	1.07	1.26	1.01	1.17
IA-LM	0.876	0.906	0.806	0.774	0.831	–	–	–	–	–	–	–	–	–	–	0.6	0.785	0.724	0.603	0.664
LC-2-ad	0.989	1.08	1.06	1	0.98	0.607	0.578	0.611	0.521	0.546	0.438	0.503	0.408	0.41	0.434	0.576	0.485	0.432	0.368	0.284
LCLC-97TM1	1.03	0.969	1.02	0.829	0.939	0.473	0.438	0.406	0.454	0.451	0.251	0.192	0.206	0.189	0.221	0.459	0.4	0.413	0.427	0.381
LCLC-103H	1.09	1.03	0.849	0.983	1.05	0.373	0.349	0.314	0.348	0.347	0.531	0.452	0.428	0.48	0.43	–	–	–	–	–
LK-2	1.32	0.942	1.04	0.977	0.998	1.15	0.506	0.381	–	0.47	0.175	0.162	0.185	–	0.165	1.1	0.782	0.935	0.944	0.802
NCI-H358	1.04	1.14	0.871	0.974	1.05	0.48	0.396	0.372	0.33	0.39	0.0977	0.105	0.0984	0.108	0.121	–	–	–	–	–
NCI-H650	1.19	1.03	0.986	0.822	0.919	0.486	0.518	0.472	0.39	0.439	0.747	0.724	0.721	0.789	0.687	–	–	–	–	–
NCI-H661	1.04	0.998	0.934	0.922	0.91	0.314	0.296	0.261	0.283	0.272	0.387	0.357	0.348	0.355	0.341	–	–	–	–	–
NCI-H1299	1.01	1.12	1.06	1.01	1.02	–	–	–	–	–	–	–	–	–	–	1.05	1.07	1.06	1.09	1.04
NCI-H1563	1.03	0.911	0.868	0.938	0.987	0.682	0.665	0.669	0.674	0.619	–	–	–	–	–	–	–	–	–	–
NCI-H1648	1.02	0.971	0.645	0.735	0.708	–	–	–	–	–	0.453	0.559	0.307	0.492	0.384	–	–	–	–	–
NCI-H1703	0.944	0.968	0.759	0.647	0.701	–	–	–	–	–	–	–	–	–	–	1.08	1.14	0.915	0.913	0.692
NCI-H1792	0.904	0.886	0.672	0.632	0.769	0.276	0.214	0.166	0.135	0.119	–	–	–	–	–	0.588	0.515	0.489	0.297	0.579
NCI-H2342	1.01	0.797	0.965	1.04	1.06	0.62	0.544	0.605	0.647	0.72	0.552	0.57	0.429	0.473	0.512	–	–	–	–	–
SW 900	0.874	0.948	0.726	0.684	0.888	0.643	0.64	0.598	0.46	0.572	0.559	0.617	0.589	0.498	0.431	–	–	–	–	–
